US20040097408A1, “Compounds regulating cell proliferation and differentiation” (priority 2001, published 2004)
Values joined by “and” are separate entries in the source; they are usually repeats but may differ in a detail not shown here. Identical values can stand only once.

What was measured:
EpH-A6 cells = test: tumor growth of EpH-A6 cells injected subcutaneously in nude mice; assay type: in vivo, mouse; set-up: Tumor weight, right flank / Tumor weight, left flank: unit not given here; conditions: for Tumor weight, left flank / Tumor weight, right flank: individual nude mice, F16 20 mg/kg intraperitoneally twice a day, 20 mg/kg
Protocol: Twenty nude mice of 8-10 weeks of age were injected subcutaneously with 10^6 EpH-A6 cells in the left and right flanks. Three days after the cell injection, a 20 mg/kg dose of F16 (40% DMSO/60% PBS) was injected intraperitoneally twice a day to a group of 10 mice, and an equivalent dose of vehicle to the remaining 10 mice (placebo mice). After 10 days of treatment, tumors were removed from all mice and weighted. Tumor tissue was used for FACS analysis, pathology, and some were stored at −70° C. until further processing.

[1] = test system: EpH4-EV and EpH4-A6 cells; test: intracellular colocalization with Mitotracker Red / Lysotracker Red / Hoescht; assay type: cell-based, mouse; conditions: 3 μM F16, 2 hours
Protocol: 2×10^4 EpH4-EV and EpH4-A6 cells were seeded in 6 well chamber slides. Next morning, cells were left untreated or treated with F16 at 3 μM for 2 hours. Cells were incubated with Hoescht stain for 30 minutes and then visualized under the microscope. Hoescht stain specifically stains the nuclei of cells. A mitochondrial specific stain, Mitotracker Red (Molecular Probes), was added to the medium to stain mitochondria, and Lysotracker Red to stain lysosomes and acidic compartments, according to manufacturer procedure. Hoescht stain was also included in the medium (together with the other stains). Cells were photographed under Axioskop (Zeiss) using a Spot Camera (Diagnostic Instruments).

[2] = total body weight of mice during treatment; assay type: in vivo, mouse; conditions: relative to weight at the beginning of the experiment; 20 mg/kg twice a day
Description: The total weight of the mice was also monitored every other day during the course of the treatment with F16.

EpH4-A6 cells [3] = test: uptake/retention of F16 by fluorescence microscopy; assay type: cell-based, mouse; conditions: 3 μM F16, 24 hours
Protocol: (§1) The following cell lines were used in this Example: EpH4-A6 (Neu^T); EpH4-EV; Neu-initiated mouse tumor cell lines NF980, NAF and nNeu; Ras-initated tumor cell lines SH1.1 and AC816; a Myc-initiated tumor cell line 16MB9a; and normal mammary epethileal cells HC11, NuMg and EpH4. The cells were grown on 60 mm plates and incubated with medium alone or medium containing 3 μM F16 for 24 hours at 37° C. The fluorescence signal of F16 was visualized under inverted microscope Axiovert (Zeiss) using a standard fluorescein filter set. Cells were photographed using a digital camera D1 (Nikon).

16MB9a = test: uptake/retention of F16 by fluorescence microscopy; assay type: cell-based, mouse; conditions: 3 μM F16, 24 hours
Protocol: as §1

[4] = test system: ras- and neu-initiated tumor cell lines; test: uptake/retention of F16 by fluorescence microscopy; assay type: cell-based, mouse; conditions: 3 μM F16, 24 hours
Protocol: as §1

EpH4-EV cells = test: uptake/retention of F16 by fluorescence microscopy; assay type: cell-based, mouse; conditions: 3 μM F16, 24 hours
Protocol: as §1

mice = test: tolerability of intraperitoneal F16 in mice
EpH4-A6 cells [5] = test: anti-BrdU cytoblot assay (BrdU incorporation); assay type: cell-based, mouse
Protocol: In order to look for selective inhibitors of cell proliferation dependent on Neu, a chemical library was screened using a cytoblot assay. The ability of small molecules to inhibit cell proliferation at a final concentration of […] determined by the relative incorporation of BrdU into DNA in EpH4-A6 Neu-overexpressing and EpH4-EV control cells.
A modified version of a protocol previously described was used for the cytoblot assay (Stockwell et al. (1999) Chem Biol 6(2), 71-83). Briefly, for this cytoblot assay, 2,000 control (EpH4-EV) and Neu overexpressing (EpH4-A6) cells were seeded in 40 μL of growing medium in duplicate in each well of a white […] plate (Costar). 16,000 compounds from a chemical library (Chembridge) were transferred to each well to a final concentration of 10-15 μM. Plates were incubated at 37° C. with 5% CO2 for 36 hours. BrdU was then added to a final concentration of 20 μM and the cells were incubated at 37° C. with 5% CO2 for an additional 3 hours. Cells were then washed with PBS and fixed with 75% ethanol/25%TBS at 4° C. for 1 hour. DNA denaturation was achieved by incubation with 2M HCl/0.5% Tween-20 for 20 min, followed by neutralization with 2M NaOH in Hank's Balanced Salt Solution (HBSS). Cells were subsequently washed with HBSS, blocked with PBS/0.3% Tween-20/1% BSA (PSTB), and incubated with 0.5 μg/mL of mouse anti-BrdU antibody (PharMingen) and 1:5,000 dilution of anti-mouse IgG coupled to HRP in PBSTB for 1 hour at room temperature. Finally the cells were washed with PBS and 20 μL of 1:1 mix of the enhanced chemiluminescence reagent (Pierce) was then added to each well of a plate. In every case addition of reagents was done using a mutli-drop 384 liquid dispenser (Labsystems) and the washes using a plate washer (Bio-Tek Instruments). Chemiluminescent signal from each plate was detected by autoradiograph and multilabel counter Victor^2 (Wallac) in order to quantitate results. A control cytoblot using inhibitory anti-Neu monoclonal antibodies was performed following the same procedure with the exception that anti-Neu antibody was added to the medium at a final concentration of 20 μg/mL.
The potency of these 55 small molecules was then evaluated at lower concentrations, i.e., at 10 μM and 1 μM using the cytoblot assay described above. […] These six compounds are referred to as E20 (ID 141525); F12 (ID 120590); F16 (ID 274873); H10 (ID 120670); J6 (ID 120856); N12 (ID 215015), and their structure is shown in FIGS. 2 A-F, respectively. […] These two compounds are referred to as L4 (ID 121113); B15(ID217496) […]. FIGS. 2 A-H also show proton NMR spectra of each of the molecules that confirmed their identity. […]

Question: Which “Tumor weight, left flank” value (EpH-A6 cells; Experiment #1, 10 days) does the source give for C[n+]1ccc(/C=C/c2c[nH]c3ccccc23)cc1.[I-] [F16] here?
Answer: 0.1131 and 0.0293 and 0.1365 and 0.021 and 0.1463 and 0.1127 and 0.1186 and 0.097 and 0.1163 and 0.1174

Question: What about the “Tumor weight, right flank” value (EpH-A6 cells; Experiment #1, 10 days) of the same molecule?
Answer: 0.214 and 0.0666 and 0.1984 and 0.1597 and 0.1645 and 0.1127 and 0.2314 and 0.2412 and 0.2408 and 0.2174

Question: What about the “Tumor weight, left flank” value (EpH-A6 cells; Experiment #2, 10 days) of the same molecule?
Answer: 0.054 and 0.4294 and 0.3368 and 0.041 and 0.2375 and 0.2087 and 0.1809 and 0.0454 and 0.1417 and 0

Question: And the “Tumor weight, right flank” value (EpH-A6 cells; Experiment #2, 10 days)?
Answer: 0.022 and 0.632 and 0.2078 and 0.1798 and 0.1063 and 0.2621 and 0.1315 and 0.1971 and 0.3451 and 0

Question: And the “difference in tumor size relative to the control mice” value (EpH-A6 cells; F16 20 mg/kg twice a day, 10 days)?
Answer: 2-3 fold

Question: And the “cells undergoing mitosis in tumors (pathology)” value (EpH-A6 cells; at least some F16 treated tumors compared to untreated tumors)?
Answer: decrease in number of cells undergoing mitosis

Question: What about the “intracellular localization of F16 staining” value [1] of the same molecule?
Answer: overlapped with the mitochondrial staining, but not with the lysosomal staining

Question: And the “average total body weight loss” value [2]?
Answer: 3.3%

Question: What about the “uptake/retention of F16 (fluorescence)” value (EpH4-A6 cells [3]) of the same molecule?
Answer: very intense fluorescent green punctuated staining

Question: What about the “uptake/retention of F16 (fluorescence)” value (16MB9a) of the same molecule?
Answer: does not show fluoresence

Question: What about the “uptake/retention of F16 (fluorescence)” value [4] of the same molecule?
Answer: very intense fluorescent green punctuated staining

Question: And the “uptake/retention of F16 (fluorescence)” value (EpH4-EV cells)?
Answer: do not show any uptake/retention

Question: And the deaths after injection (mice; 50 mg/kg, a few hours after the injection)?
Answer: one mouse out of 5

Question: What about the “maximum tolerable dose (MTD)” value (mice; intraperitoneal injection, mice) of the same molecule?
Answer: ~50 mg/kg

Question: And the “score in anti-BrdU cytoblot” value (EpH4-A6 cells [5]; EpH4-A6 cells at 10 μM)?
Answer: positive

Question: What about the “concentration up to which anti-proliferative activity is retained” value (EpH4-A6 cells [5]; EpH4-A6 cells, concentrations from 100 to 0.01 μM, FIG. 3) of the same molecule?
Answer: 100 nM

Question: And the “concentration at which F16 is effective / partially inhibits BrdU incorporation (as low as)” value (EpH4-A6 cells [5]; EpH4-A6 cells, cytoblot)?
Answer: 10 nM

Question: What about the “concentration at which anti-proliferative activity was shown (as low as)” value (EpH4-A6 cells [5]; EpH4-A6 cells, cytoblot) of the same molecule?
Answer: 1 µM
